Results: patent US20080063601A1, “Compositions and methods relating to polycystic kidney disease” (priority 2004, published 2008)

How the values were obtained:
HeLa cells = experiment: HeLa cell viability by trypan blue dye exclusion; type: cell-based
Method: Since extracellular calcium concentration can influence triptolide binding Applicant sought to determine if the presence of calcium influences the rate of triptolide-mediated apoptosis. To first establish the growth rate of HeLa in media±calcium, cell counts were performed over a 72 hour time course. Although calcium-free media caused cells to detach more easily, the overall growth rates were similar where cell doubling occurred every 24 hours on average (FIG. 5B). For triptolide experiments, cells were initially equilibrated in medium±calcium for 16 hours before the addition of 100 nM triptolide. Cell death was assessed by trypan blue dye exclusion at 24, 48, and 72 hours post drug treatment. In the presence of calcium-containing medium, triptolide induced at least 50% cell death by 24 hours with this trend continuing through later time points (FIG. 5C).
Applicant's results have implicated reversible binding of triptolide to a potential binding protein or complex that can be regulated by calcium. To understand if triptolide function is further separable between cell death and NFκB inhibition, Applicant examined the effect of concentration on these two endpoints. HeLa cells were cultured in the presence of 0, 10, 25, 50, or 100 nM of triptolide and separately assessed for cell death or the ability to suppress NFκB transactivation promoted by TNF-α. Following 24-48 hours of culture, viable cells were recovered and counted. Following 24 hours, triptolide concentrations from 25-100 nM caused greater than 50% of the cells to undergo cell death as assessed by detachment, clumping and the failure to exclude trypan blue dye. […] This is consistent with previous studies showing that low doses of triptolide cause cell cycle arrest rather than apoptosis (Kiviharju, et al., 2002, Clin Cancer Res 8, 2666-2674).
Based upon Applicant's studies examining the concentration dependent effect of triptolide on the two measured biological endpoints, cell death and transcriptional repression, Applicant wanted to determine how modulating triptolide's structure may also discriminate between the two pathways. For cell viability assays, HeLa cells were incubated with 0, 0.1, 1, or 10 μM of each analog or triptolide for 24 hours and then counted using trypan blue dye exclusion. […] NFκB transcriptional inhibition was measured using the κB-luciferase assay as previously described following 5 hours of incubation with each analog (0-10 μM) and TNF-α addition.
HeLa cells were incubated in DMEM or SMEM (Gibco) media+10% FBS and maintained at 37° C. in 5% CO2 for all experiments. HeLa cell viability was assessed by trypan blue dye exclusion, as well as by morphological examination (non-viable cells were rounded and detached from culture plate).

[1] = system: Pkd1^−/− murine kidney epithelial cells; experiment: Growth, p21 and active caspase-3 in Pkd1−/− kidney epithelial cells; type: cell-based; settings: 100 nM
Method: Total cell lysates (0.5% Triton X-100, 50 mM Tris pH 7.4, 150 mM NaCl, […]) were prepared for Western blot analysis and samples were run out by SDS-PAGE as per manufacturers' protocols. Brightfield images of cells were taken using a 10× or 40× objective. Confocal microscopy (40×) was used for immunofluorescence imaging of polycystin-2.
Calcium response to triptolide was, thus, shown to be dependent on polycystin-2. The biological response to calcium flux was next assessed in the murine Pkd1^−/− cell line, by adding 100 nM triptolide to the cultured cells and observing cell growth over time. Within the first 24 hours of culture, a minimal number of detached cells was observed. […] In the absence of triptolide, this cell line underwent a population doubling every 48 hours. […] It is possible that additional signaling pathways are activated by triptolide when Pkd1 is expressed. […] Therefore, Applicant assessed whether the inhibition of proliferation observed was due to p21 re-expression upon triptolide treatment.

Pkd2^+/− cells = experiment: Viability of Pkd2+/− kidney epithelial cells; type: cell-based, murine; settings: Pkd2+/− cells (one copy each of Pkd1 and Pkd2), 100 nM
[2] = Dose finding / toxicity in pregnant C57B1/6 mice; type: in vivo
Method: Triptolide has been previously studied in rodent models of tumor regression (Tengchaisri, et al., 1998, Cancer Lett 133, 169-175; Yang, et al., 2003, Mol Cancer Ther 2, 65-72), but it had not yet been tested in a system utilizing pregnant females. To first establish a potential therapeutic versus lethal concentration of drug delivery, pregnant C57B1/6 mice were treated with incremental concentrations of triptolide between 0.01-0.15 mg/kg/day i.p. injections. Toxicity was assessed as determined by resorption of all embryos or the preponderance of a large percentage of stillborns. With reference to these criteria, triptolide toxicity was determined to be most prominent at concentrations of 0.1 mg/kg/day or greater. […] Another experimental parameter involved the timing of the start of triptolide injections, since polycystin-2 has been implicated in left-right axis formation in the developing embryo at approximately E7.75 (McGrath, et al., 2003, Cell 114, 61-73; Pennekamp, et al., 2002, Curr Biol 12, 938-943). Applicants therefore chose E10.5 as the start of triptolide injections, in order to allow for a normal polycystin-2 mediated patterning event and still leave sufficient time to act on cyst formation during kidney organogenesis.

CC(C)[C@]12O[C@H]1[C@@H]1O[C@]13[C@]1(O[C@H]1C[C@H]1C4=C(CC[C@@]13C)C(=O)OC4)[C@@H]2O [triptolide]
minimal incubation time required for commitment to apoptosis (HeLa cells): three to four hours | effect on cell proliferation and cell death (HeLa cells; 10 nM, 48 hours): inhibited cell proliferation but did not induce cell death | cell death (HeLa cells; 0.1 μM, 24 hours): 60% | cell death (HeLa cells; 0.1 μM, 24 hours, listed as Triptolide): greater than 50% | cells died (HeLa cells; 100 nM, calcium free media, 72 hours): 35% | cell death (HeLa cells; 100 nM, calcium-containing medium, by 24 hours): at least 50% | cells undergoing cell death (HeLa cells; 25-100 nM, 24 hours): greater than 50% | cells died (HeLa cells; 25-100 nM, 48 hours): nearly all cells | active caspase-3 (western blot) [1]: failed to implicate triptolide induced apoptosis | p21 expression (western blot) ([1]; 96 hour time course): upregulated | cell growth ([1]; over 96 hours): growth arrested | cell viability (Pkd2^+/− cells): rapid cell death within 24 hours | adverse effects ([2]; 0.07 mg/kg/day i.p.): no discernable adverse effects | MTD ([2]; female, mouse, in vivo, ip, read-out: maximum tolerated dose): 0.07 mg/kg/day | dose at which toxicity (resorption of all embryos or large percentage of stillborns) was most prominent ([2]; i.p., 0.01-0.15 mg/kg/day tested): ≥ 0.1 mg/kg/day
